Source: patent US20230271941A1, “COMPOUNDS AND COMPOSITIONS FOR TREATING CONDITIONS ASSOCIATED WITH STING ACTIVITY” (IFM Due, Inc., priority 2020, published 2023)

The compounds below were run against T1, hSTING (Homo sapiens, UniProt Q86WV6, G230A/H232R/R293Q/R71H) (assay: STING reporter assay: THP1-Dual KO-IFNAR2 cells stimulated with 2′3′cGAMP, luciferase reporter activity). Conditions: 15 μM 2′3′cGAMP transfected with Lipofectamine 2000, 24 h, luciferase reporter (QUANTI-Luc).
T1 construct: host or cells: THP1-Dual KO-IFNAR2 cells
T1 sequence (Q86WV6 whole entry R71H/G230A/H232R/R293Q): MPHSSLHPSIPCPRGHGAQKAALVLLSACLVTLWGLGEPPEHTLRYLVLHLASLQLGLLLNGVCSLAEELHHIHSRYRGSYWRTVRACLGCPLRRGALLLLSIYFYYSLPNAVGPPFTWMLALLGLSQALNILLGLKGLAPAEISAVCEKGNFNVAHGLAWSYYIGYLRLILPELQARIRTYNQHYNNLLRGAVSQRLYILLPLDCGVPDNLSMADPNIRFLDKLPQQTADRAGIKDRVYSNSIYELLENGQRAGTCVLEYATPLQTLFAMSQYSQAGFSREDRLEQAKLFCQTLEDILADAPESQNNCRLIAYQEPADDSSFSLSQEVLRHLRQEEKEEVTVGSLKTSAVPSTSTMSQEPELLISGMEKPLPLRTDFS
Type: cell-based
Experimental: STING pathway activation by the compounds described herein was measured using THP1-Dual™ cells (KO-IFNAR2).
THP1-Dual™ KO-IFNAR2 Cells (obtained from invivogen) were maintained in RPMI, 10% FCS, 5 ml P/S, 2 mM L-glut, 10 mM Hepes, and 1 mM sodium pyruvate. Compounds were spotted in empty 384 well tissue culture plates (Greiner 781182) by Echo for a final concentration of 0.0017-100 μM. Cells were plated into the TC plates at 40 μL per well, 2×10E6 cells/mL. For activation with STING ligand, 2′3′cGAMP (MW 718.38, obtained from Invivogen), was prepared in Optimem media.
The following solutions were prepared for each 1×384 plate: • Solution A: 2 mL Optimem with one of the following stimuli: • 60 μL of 10 mM 2′3′cGAMP→150 μM stock • Solution B: 2 mL Optimem with 60 μL Lipofectamine 2000→Incubate 5 min at RT
2 mL of solution A and 2 ml Solution B was mixed and incubated for 20 min at room temperature (RT). 20 μL of transfection solution (A+B) was added on top of the plated cells, with a final 2′3′cGAMP concentration of 15 μM. The plates were then centrifuged immediately at 340 g for 1 minute, after which they were incubated at 37° C., 5% CO2, >98% humidity for 24 h. Luciferase reporter activity was then measured. EC50 values were calculated by using standard methods known in the art.
Luciferase reporter assay: 10 μL of supernatant from the assay was transferred to white 384-plate with flat bottom and squared wells. One pouch of QUANTI-Luc™ Plus was dissolved in 25 mL of water. 100 μL of QLC Stabilizer per 25 mL of QUANTI-Luc™Plus solution was added. 50 μL of QUANTI-Luc™ Plus/QLC solution per well was then added. Luminescence was measured on a Platereader (e.g., Spectramax I3X (Molecular Devices GF3637001)).
Luciferase reporter activity was then measured. EC50 values were calculated by using standard methods known in the art.
For CC(C)n1cc(-c2ccc3[nH]cc(NC(=O)c4cn(-c5ccc(C(F)(F)F)cc5)cn4)c3c2)cn1 [Compound 139, N-(5-(1-isopropyl-1H-pyrazol-4-yl)-1H-indol-3-yl)-1-(4-(trifluoromethyl)phenyl)-1H-imidazole-4-carboxamide], the EC50 was 200 to 1000 nM.
Work on O=C(Nc1c[nH]c2c(F)cncc12)c1cnn(Cc2ccc(C(F)(F)F)cc2)c1 [Compound 128, N-(7-fluoro-1H-pyrrolo[3,2-c]pyridin-3-yl)-1-(4-(trifluoromethyl)benzyl)-1H-pyrazole-4-carboxamide] yielded an EC50 of 200 to 1000 nM.
For O=C(Nc1c[nH]c2cc(F)c(F)cc12)c1cc(-c2cccnc2)[nH]n1 [Compound 119, N-(5,6-difluoro-1H-indol-3-yl)-5-(pyridin-3-yl)-1H-pyrazole-3-carboxamide], the EC50 was 5000 to 100000 nM.
Cc1cncc2c(NC(=O)c3cnn(Cc4ccc(C(F)(F)F)cc4)c3)c[nH]c12 [Compound 125, N-(7-methyl-1H-pyrrolo[3,2-c]pyridin-3-yl)-1-(4-(trifluoromethyl)benzyl)-1H-pyrazole-4-carboxamide] gave an EC50 of 1000 to 5000 nM.
Work on O=C(Nc1c[nH]c2cc(F)c(F)cc12)c1cc(CC2CCN(CC(F)(F)F)CC2)on1 [Compound 152, N-(5,6-difluoro-1H-indol-3-yl)-5-((1-(2,2,2-trifluoroethyl)piperidin-4-yl)methyl)isoxazole-3-carboxamide] yielded an EC50 of 200 to 1000 nM.
With CC(C)n1cc(-c2ccc3[nH]cc(NC(=O)c4ccn(Cc5ccc(C(F)(F)F)cc5)n4)c3c2)cn1 [Compound 133, N-(5-(1-isopropyl-1H-pyrazol-4-yl)-1H-indol-3-yl)-1-(4-(trifluoromethyl)benzyl)-1H-pyrazole-3-carboxamide] the EC50 was 200 to 1000 nM.
O=C(Nc1c[nH]c2cc(F)c(Cl)cc12)c1cn(Cc2ccc(C(F)(F)F)cc2)nn1 [Compound 168, N-(5-chloro-6-fluoro-1H-indol-3-yl)-1-(4-(trifluoromethyl)benzyl)-1H-1,2,3-triazole-4-carboxamide] gave an EC50 of 200 to 1000 nM.
Compound O=C(Nc1c[nH]c2ccccc12)c1ncc(-c2ccc(C(F)(F)F)cc2)[nH]1 [Compound 129, N-(1H-indol-3-yl)-5-(4-(trifluoromethyl)phenyl)-1H-imidazole-2-carboxamide] has an EC50 of 200 to 1000 nM.
O=C(Nc1c[nH]c2cc(F)c(F)cc12)c1cc(Cc2ccc(C(F)(F)F)cc2)[nH]n1 [Compound 145, N-(5,6-difluoro-1H-indol-3-yl)-5-(4-(trifluoromethyl)benzyl)-1H-pyrazole-3-carboxamide] gave an EC50 of 200 to 1000 nM.
Compound O=C(Nc1c[nH]c2cc(F)ccc12)c1cn(Cc2ccc(C(F)(F)F)cc2)cn1 [Compound 104, N-(6-fluoro-1H-indol-3-yl)-1-(4-(trifluoromethyl)benzyl)-1H-imidazole-4-carboxamide] has an EC50 of 200 to 1000 nM.
Cn1nc(C(=O)Nc2c[nH]c3cc(F)c(Cl)cc23)cc1Cc1ccc(C(F)(F)F)cc1 [Compound 162, N-(5-chloro-6-fluoro-1H-indol-3-yl)-1-methyl-5-(4-(trifluoromethyl)benzyl)-1H-pyrazole-3-carboxamide] gave an EC50 of 40 to 200 nM.
O=C(Nc1c[nH]c2cc(F)c(F)cc12)c1cc(-c2ccccn2)on1 [Compound 109, N-(5,6-difluoro-1H-indol-3-yl)-5-(pyridin-2-yl)-1,2-oxazole-3-carboxamide] was tested, and the EC50 was 200 to 1000 nM.
In the case of O=C(Nc1c[nH]c2cc(F)c(F)cc12)c1cc(-c2ccc(Cl)cc2)on1 [Compound 167, 5-(4-chlorophenyl)-N-(5,6-difluoro-1H-indol-3-yl)isoxazole-3-carboxamide], the EC50 is reported as 200 to 1000 nM.
With O=C(Nc1c[nH]c2cnccc12)c1cnn(Cc2ccc(C(F)(F)F)cc2)c1 [Compound 144] the EC50 was 5000 to 100000 nM.
In the case of O=C(Nc1c[nH]c2ccccc12)c1cn(-c2ccc(C(F)(F)F)c(Cl)c2)cn1 [Compound 135, 1-(3-chloro-4-(trifluoromethyl)phenyl)-N-(1H-indol-3-yl)-1H-imidazole-4-carboxamide], the EC50 is reported as 200 to 1000 nM.
Work on CC(C)n1cc(-c2ccc3[nH]cc(NC(=O)c4cn(Cc5ccc(C(F)(F)F)cc5)cn4)c3c2)cn1 [Compound 138, N-(5-(1-isopropyl-1H-pyrazol-4-yl)-1H-indol-3-yl)-1-(4-(trifluoromethyl)benzyl)-1H-imidazole-4-carboxamide] yielded an EC50 of 200 to 1000 nM.
Compound O=C(Nc1c[nH]c2cc(F)c(F)cc12)c1cc(CCc2ccc(C(F)(F)F)cc2)no1 [Compound 150, N-(5,6-difluoro-1H-indol-3-yl)-3-(4-(trifluoromethyl)phenethyl)isoxazole-5-carboxamide] has an EC50 of 40 to 200 nM.
With CC(c1ccc(C(F)(F)F)cc1)n1cc(C(=O)Nc2c[nH]c3cc(F)c(F)cc23)cn1 (single isomer, unassigned) [Compound 120, (R or S)-N-(5,6-difluoro-1H-indol-3-yl)-1-(1-(4-(trifluoromethyl)phenyl)ethyl)-1H-pyrazole-4-carboxamide] the EC50 was 200 to 1000 nM.
For O=C(Nc1c[nH]c2cc(F)c(F)cc12)c1csc(-c2ccccc2)n1 [Compound 111, N-(5,6-difluoro-1H-indol-3-yl)-2-phenyl-1,3-thiazole-4-carboxamide], the EC50 was 1000 to 5000 nM.
Work on CC(C)(C)OC(=O)N1CCC(n2cc(C(=O)Nc3c[nH]c4cc(F)c(F)cc34)nn2)CC1 [Compound 169, tert-butyl 4-(4-((5,6-difluoro-1H-indol-3-yl)carbamoyl)-1H-1,2,3-triazol-1-yl)piperidine-1-carboxylate] yielded an EC50 of 1000 to 5000 nM.
With O=C(Nc1c[nH]c2ccccc12)c1cn(-c2cnc(OCC(F)(F)F)c(F)c2)nn1 [Compound 157, 1-(5-fluoro-6-(2,2,2-trifluoroethoxy)pyridin-3-yl)-N-(1H-indol-3-yl)-1H-1,2,3-triazole-4-carboxamide] the EC50 was 5000 to 100000 nM.
Work on O=C(Nc1c[nH]c2cc(F)c(Cl)cc12)c1cc(Cc2ccc(C(F)(F)F)cc2)n(C(F)F)n1 [Compound 166, N-(5-chloro-6-fluoro-1H-indol-3-yl)-1-(difluoromethyl)-5-(4-(trifluoromethyl)benzyl)-1H-pyrazole-3-carboxamide] yielded an EC50 of 200 to 1000 nM.
O=C(Nc1c[nH]c2cc(F)c(F)cc12)c1cc(-c2cccc(Cl)c2)[nH]n1 [Compound 174, 5-(3-chlorophenyl)-N-(5,6-difluoro-1H-indol-3-yl)-1H-pyrazole-3-carboxamide] was tested, and the EC50 was 200 to 1000 nM.
Work on Cc1cc(C(=O)Nc2c[nH]c3cc(F)c(F)cc23)nn1C1CCCCC1 [Compound 140, 1-cyclohexyl-N-(5,6-difluoro-1H-indol-3-yl)-5-methyl-1H-pyrazole-3-carboxamide] yielded an EC50 of 5000 to 100000 nM.
Work on O=C(Nc1c[nH]c2ccccc12)c1cncn1Cc1ccc(C(F)(F)F)c(Cl)c1 [Compound 132, 1-(3-chloro-4-(trifluoromethyl)benzyl)-N-(1H-indol-3-yl)-1H-imidazole-5-carboxamide] yielded an EC50 of 1000 to 5000 nM.
O=C(Nc1c[nH]c2cc(F)c(Cl)cc12)c1cnn(Cc2ccc(C(F)(F)F)cc2)c1 [Compound 141, N-(5-chloro-6-fluoro-1H-indol-3-yl)-1-(4-(trifluoromethyl)benzyl)-1H-pyrazole-4-carboxamide] was tested, and the EC50 was 40 to 200 nM.
In the case of O=C(Nc1c[nH]c2cc(F)c(F)cc12)c1cnn(CCOc2cccnc2)c1 [Compound 124, N-(5,6-difluoro-1H-indol-3-yl)-1-(2-(pyridin-3-yloxy)ethyl)-1H-pyrazole-4-carboxamide], the EC50 is reported as 5000 to 100000 nM.
O=C(Nc1c[nH]c2cc(Cl)c(F)cc12)c1cnn(Cc2ccc(C(F)(F)F)cc2)c1 [Compound 107, N-(6-chloro-5-fluoro-1H-indol-3-yl)-1-(4-(trifluoromethyl)benzyl)-1H-pyrazole-4-carboxamide] was tested, and the EC50 was 200 to 1000 nM.
